Tests used:
[1] = target: T1, Kappa-type opioid receptor (Homo sapiens, UniProt P41145); test: Displacement of [3H]diprenorphine from human kappa opioid receptor expressed in CHO cells; assay type: cell-based
[2] = target: T1, Kappa-type opioid receptor; test: Agonist activity at human kappa opioid receptor expressed in CHO cells assessed as increase in […] [35S]GTPgammaS binding; assay type: functional, cell-based
Mu-type opioid receptor = Mu-type opioid receptor (Rattus norvegicus, UniProt P33535); test: Displacement of [3H]diprenorphine from rat mu opioid receptor expressed in CHO cells; assay type: cell-based
[3] = target: Delta-type opioid receptor (Mus musculus, UniProt P32300); test: Displacement of [3H]diprenorphine from mouse delta opioid receptor expressed in CHO cells; assay type: cell-based
[4] = target: T1, Kappa-type opioid receptor; test: Displacement of [3H]diprenorphine from human kappa opioid receptor expressed in CHO cells in presence of EGTA; assay type: cell-based

Sequence of Mu-type opioid receptor (P33535 whole entry): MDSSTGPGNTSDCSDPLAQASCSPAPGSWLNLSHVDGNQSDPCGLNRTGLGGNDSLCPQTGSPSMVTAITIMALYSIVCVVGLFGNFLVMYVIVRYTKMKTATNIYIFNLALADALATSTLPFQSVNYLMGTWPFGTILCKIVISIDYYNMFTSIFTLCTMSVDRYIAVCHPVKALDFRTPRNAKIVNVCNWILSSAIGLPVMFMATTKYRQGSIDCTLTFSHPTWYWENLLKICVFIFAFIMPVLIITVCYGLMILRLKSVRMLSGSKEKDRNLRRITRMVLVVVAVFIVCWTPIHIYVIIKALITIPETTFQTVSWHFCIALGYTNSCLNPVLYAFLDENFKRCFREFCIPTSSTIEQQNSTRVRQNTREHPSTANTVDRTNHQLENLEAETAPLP
Sequence of Delta-type opioid receptor (P32300 whole entry): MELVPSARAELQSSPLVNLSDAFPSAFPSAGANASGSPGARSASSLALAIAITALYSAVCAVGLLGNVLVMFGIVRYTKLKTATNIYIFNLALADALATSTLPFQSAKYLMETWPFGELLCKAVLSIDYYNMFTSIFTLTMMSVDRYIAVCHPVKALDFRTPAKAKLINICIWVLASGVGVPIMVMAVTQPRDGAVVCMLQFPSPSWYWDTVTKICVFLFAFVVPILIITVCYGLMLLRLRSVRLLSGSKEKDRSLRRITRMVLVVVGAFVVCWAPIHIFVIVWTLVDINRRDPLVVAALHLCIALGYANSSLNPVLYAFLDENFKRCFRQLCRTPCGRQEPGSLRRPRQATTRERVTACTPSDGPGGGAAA
T1 sequence (P41145 whole entry): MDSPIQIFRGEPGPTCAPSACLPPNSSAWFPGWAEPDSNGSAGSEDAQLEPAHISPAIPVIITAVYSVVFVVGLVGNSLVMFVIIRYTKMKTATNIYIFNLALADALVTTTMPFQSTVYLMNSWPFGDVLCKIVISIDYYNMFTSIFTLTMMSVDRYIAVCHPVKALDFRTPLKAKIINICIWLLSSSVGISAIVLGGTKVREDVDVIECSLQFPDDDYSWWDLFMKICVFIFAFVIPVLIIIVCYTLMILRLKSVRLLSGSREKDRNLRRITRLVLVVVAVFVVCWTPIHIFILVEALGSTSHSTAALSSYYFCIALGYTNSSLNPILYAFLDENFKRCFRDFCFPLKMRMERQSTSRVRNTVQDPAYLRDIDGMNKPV

COC(=O)[C@@H]1C[C@H](OC(C)=O)C(=O)[C@H]2[C@@]1(C)CC[C@H]1C(=O)O[C@H](c3nc(C)no3)C[C@]21C
> 1000 nM: Ki [1] | EC50 [2] | Ki (Mu-type opioid receptor) | Ki [3] | Ki [4]

COC(=O)[C@@H]1C[C@H](OC(C)=O)C(=O)[C@H]2[C@@]1(C)CC[C@H]1C(=O)O[C@H](c3cn(Cc4ccccc4)nn3)C[C@]21C
> 1000 nM: Ki [1] | Ki (Mu-type opioid receptor) | Ki [3]

COC(=O)[C@@H]1C[C@H](OC(C)=O)C(=O)[C@H]2[C@@]1(C)CC[C@H]1C(=O)O[C@H](c3cn(COC(=O)C(C)(C)C)nn3)C[C@]21C
> 1000 nM: Ki [1] | Ki (Mu-type opioid receptor) | Ki [3]

COC(=O)[C@@H]1C[C@H](OC(C)=O)C(=O)[C@H]2[C@@]1(C)CC[C@H]1C(=O)O[C@H](c3cn(C)nn3)C[C@]21C
> 1000 nM: Ki [1] | Ki (Mu-type opioid receptor) | Ki [3]

COC(=O)[C@@H]1C[C@H](OC(C)=O)C(=O)[C@@H]2[C@@]3(C)C[C@@H](c4c[nH]nn4)OC(=O)[C@H]3CC[C@]21C
> 1000 nM: Ki [1] | Ki (Mu-type opioid receptor) | Ki [3]

COC(=O)[C@@H]1C[C@H](OC(C)=O)C(=O)[C@H]2[C@@]1(C)CC[C@H]1C(=O)O[C@H](c3c[nH]nn3)C[C@]21C
> 1000 nM: Ki [1] | Ki (Mu-type opioid receptor) | Ki [3]

CCn1cc([C@@H]2C[C@]3(C)[C@H]4C(=O)[C@@H](OC(C)=O)C[C@@H](C(=O)OC)[C@]4(C)CC[C@H]3C(=O)O2)nn1
> 1000 nM: Ki [1] | Ki (Mu-type opioid receptor) | Ki [3]

Source: ChEMBL document CHEMBL1153907, “Synthesis and biological evaluation of C-12 triazole and oxadiazole analogs of salvinorin A” (Bioorg Med Chem Lett, 2009)
